Consider six compounds from patent US20240279278A1, “NMU RECEPTOR 2 AGONISTS” (Boehringer Ingelheim International GmbH, priority 2023, published 2024).

≈ marks a conversion by molar mass, not a printed value. Residues, ends and D or L forms follow the SMILES beside them.

Series [1] in a line: physchem. In kind it is physicochemical. The method, boiled down:
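Peptide TFA salts were shaken at a nominal 10 mg/mL in 0.1 M phosphate buffer, pH 6 to 8, for 2 h at room temperature and then filtered. Reversed-phase HPLC peak area was compared with a 1 mg/mL control in buffer or DMSO to give solubility. The pH of each sample was recorded.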

The target of series [2] is T1, human NMUR1 receptor (Homo sapiens, UniProt Q9HB89).
T1 construct: host or cells: CHO-K1
T1 sequence (Q9HB89 24-426 limits assumed): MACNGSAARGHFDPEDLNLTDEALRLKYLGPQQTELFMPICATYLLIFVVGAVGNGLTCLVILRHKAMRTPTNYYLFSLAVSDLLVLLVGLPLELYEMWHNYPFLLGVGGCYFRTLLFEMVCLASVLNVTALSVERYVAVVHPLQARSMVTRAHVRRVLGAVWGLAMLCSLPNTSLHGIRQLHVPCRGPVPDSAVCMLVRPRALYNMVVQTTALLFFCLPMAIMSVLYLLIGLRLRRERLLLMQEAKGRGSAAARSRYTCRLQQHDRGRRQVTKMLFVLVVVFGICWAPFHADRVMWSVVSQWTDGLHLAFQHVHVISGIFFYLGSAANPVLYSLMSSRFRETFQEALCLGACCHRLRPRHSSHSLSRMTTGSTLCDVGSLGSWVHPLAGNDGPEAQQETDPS
The series can be described thus: Radioligand binding competition assay (RLB), human NMUR1 receptor binding (SPA, [125I]-Neuromedin U-25). The note with it: CHO-K1 hNMUR1 cell membranes, 4 hours at RT. From the text:
Example 2: Radioligand Binding Competition Assay (RLB) Human NMUR1 Receptor Binding 1) Membranes The test is based on membranes prepared from a human NMUR1/Apoaequorin Stable Cell Line (Creative Biogene, Cat. No. CSC-RG1308). Cell Line Description: CHO-NMUR1 cell line is clonally-derived from a CHO-K1 cell line, which has been transfected with a bicistronic expression plasmid containing the sequence coding for the human neuromedin U receptor 1 (NM_006056.4, 180 to 1391). Mosaic-ID: CL16550614 Membrane preparation: Cells were broken by nitrogen cavitation (900 psi, 1 hour). Intact cells were removed by centrifugation (400 rcf, 10 minutes, 4° C.) before the crude membrane fraction was collected by ultracentrifugation (20.000 rcf, 1 hour, 4° C.). 2) Human NMUR1 Receptor Binding Assay (Radioligand: [125l]-Neuromedin U-25) In this Scintillation Proximity Assay (SPA) design, the membranes immobilize directly to the PVT-WGA-PEI type A beads (polyethyleneimine treated polyvinyltoluene beads coupled to wheatgerm agglutinin, Perkin Elmer) via interactions of wheat germ agglutinate and glycosylated membrane structures. Thereby the radioactively la-belled ligand, bound to NMUR1 receptors on the membrane, comes in close proximity to the solid scintillator of the PVT bead. Radioactive human neuromedin U-25 then stimulates the scintillant to emit light. In contrast, radioligand not bound to the receptor is too distant from the bead to elicit a signal. For the Scintillation Proximity Assay the CHO-K1 hNMUR1 cell membranes and SPA-beads are diluted to concentrations, which assure a robust signal to background ratio. The SPA incubation buffer consists of 25 mM Hepes (pH=7.0), 5 mM MgCl2, 1 mM CaCl2, 10 ug/mL Saponine and 0.1% bovine serum albumin and is used for all dilutions. Final assay setup in 96-well plate: 20 μL of 10× test compound dilutions+40 μL of 5× [125l]-Neuromedin U-25 (1× approx. 30 pM; 2000 μCi/mmol (μCi=microcurie))+60 μL membrane dilution (approx. 1.0 μg membrane protein)+80 μL SPA bead dilution (250 μg). The assay is incubated for 4 hours at RT, including controls for specific binding where no displacer is added and non-specific binding by adding unlabeled hNMU-25 at 100 nM. Bound radioactivity is determined by scintillation counting (MicroBeta Trilux 1450, Perkin Elmer, detection of 125I decay). […] The system assumes one binding site with no relevant radioligand depletion (<10%) and that the binding is reversible and at equilibrium. [formula] [formula]

The target of series [3] is human NMUR2 receptor (Homo sapiens, UniProt Q9GZQ4). Kind of series: IP1 Gq HTRF assay, activation of human NMUR2 in buffer. Set-up: expressed in transfected cells; host or cells: CHO-K1. In kind it is cell-based. Conditions: for EC50: CHO-K1 cells expressing human NMUR2, stimulation buffer with 0.1% BSA, read-out: EC50 (hNMUR2) buffer. The method, boiled down: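 CHO-K1 cells stably expressing human NMUR1 or NMUR2, seeded 24 h before assay, stimulated with peptide agonists (8-point dose-response, 1% DMSO final) in HEPES/HBSS buffer with 50 mM LiCl and 0.1% BSA, pH 7.4, 1 h at 37 °C. IP1 accumulation read by HTRF competition (665/620 nm); EC50 from 4-parameter sigmoidal fit.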
Sequence of human NMUR2 receptor (Q9GZQ4 whole entry): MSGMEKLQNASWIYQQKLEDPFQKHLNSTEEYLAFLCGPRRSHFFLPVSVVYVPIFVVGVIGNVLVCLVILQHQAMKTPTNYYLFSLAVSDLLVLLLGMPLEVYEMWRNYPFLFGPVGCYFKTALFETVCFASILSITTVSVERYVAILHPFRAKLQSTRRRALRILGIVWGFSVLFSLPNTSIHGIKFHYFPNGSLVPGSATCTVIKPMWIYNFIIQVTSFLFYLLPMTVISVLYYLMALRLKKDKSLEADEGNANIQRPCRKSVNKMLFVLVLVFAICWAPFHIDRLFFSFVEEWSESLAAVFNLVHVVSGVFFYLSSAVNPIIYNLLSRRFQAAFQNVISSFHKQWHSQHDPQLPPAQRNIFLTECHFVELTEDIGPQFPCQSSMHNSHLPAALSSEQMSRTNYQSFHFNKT
On the technique in general: TR-FRET usually uses a lanthanide donor and a delayed reading to cut background.

One may read the solubility as the dissolved amount per volume that the medium holds. Higher therefore signals much dissolved substance. The term Ki denotes a dissociation constant, usually derived from enzyme kinetics or from competition with a known ligand. A higher Ki goes with lower affinity. By EC50 is commonly meant the midpoint of the concentration-response curve. In series [1] (pH 7.2), `CCCC[C@H](NC(=O)[C@H](CC(C)C)N(C)C(=O)[C@H](Cc1ccccc1)NC(=O)[C@H](Cc1ccc(O)cc1)NC(=O)CN1CCN(CCNC(=O)CN(C)C(=O)CN(C)C(=O)CN(C)C(=O)CN(C)C(=O)CN(C)C(=O)CN(C)C(=O)CN(C)C(=O)CN(C)C(=O)CN(C)C(=O)CN(C)C(=O)CN(C)C(=O)CN(C)C(=O)CC[C@H](NC(=O)CC[C@H](NC(=O)CC[C@H](NC(=O)CCCCCCCCCCCCCCCCCCC(=O)O)C(=O)O)C(=O)O)C(=O)O)CC1)C(=O)N[C@@H](CCCNC(=N)N)C(=O)N1CCC[C@H]1C(=O)N[C@@H](CCCNC(=N)N)C(=O)NCC(N)=O` [Compound 6, C20DA-gGlu3-Sar12-AEPipAc-Tyr-Phe-NMeLeu-Nle-Arg-Pro-Arg-Gly-NH2] returned a solubility at 2 h of 4600 µg/mL (≈ 1660 µM). Also, the Ki in series [2] is more than 10000 nM. The EC50 in series [3] is 2 nM.

In series [1] (pH 7), `CCCC[C@H](NC(=O)[C@H](CC(C)C)N(C)C(=O)[C@H](Cc1ccccc1)NC(=O)[C@H](Cc1ccc(O)cc1)NC(=O)CN1CCN(CCNC(=O)CN(C)C(=O)CN(C)C(=O)CN(C)C(=O)CN(C)C(=O)CN(C)C(=O)CN(C)C(=O)CN(C)C(=O)CN(C)C(=O)CN(C)C(=O)CN(C)C(=O)CN(C)C(=O)CN(C)C(=O)CN(C)C(=O)CN(C)C(=O)CN(C)C(=O)CC[C@H](NC(=O)CC[C@H](NC(=O)CC[C@H](NC(=O)CCCCCCCCCCCCCCCCC(=O)O)C(=O)O)C(=O)O)C(=O)O)CC1)C(=O)N[C@@H](CCCNC(=N)N)C(=O)N1CCC[C@H]1C(=O)N[C@@H](CCCNC(=N)N)C(=O)NCC(N)=O` [Compound 7, C18DA-gGlu3-Sar15-AEPipAc-Tyr-Phe-NMeLeu-Nle-Arg-Pro-Arg-Gly-NH2] (HELM PEPTIDE1{[O=C(O)CCCCCCCCCCCCCCCCC(=O)[*:2]].[gGlu].[gGlu].[gGlu].[Sar].[Sar].[Sar].[Sar].[Sar].[Sar].[Sar].[Sar].[Sar].[Sar].[Sar].[Sar].[Sar].[Sar].[Sar].[O=C(CN1CCN(CCN[*:1])CC1)[*:2]].Y.F.[meL].[Nle].R.P.R.G.[am]}$$$$V2.0) showed a solubility at 2 h of 7000 µg/mL (≈ 2370 µM). In series [2], the affinity, expressed as Ki, was 3740 nM. In addition, in series [3], the EC50 is 1.2 nM. Further, the “EC50 (hNMUR1)/EC50 (hNMUR2)” value in series [3] (selectivity for NMUR2 over NMUR1 from IP1 assay in buffer (Example 3)) is 208.

On to `CCCC[C@H](NC(=O)[C@H](CC(C)C)N(C)C(=O)[C@H](Cc1ccccc1)NC(=O)[C@H](Cc1ccc(O)cc1)NC(=O)CN1CCN(CCNC(=O)CN(C)C(=O)CN(C)C(=O)CN(C)C(=O)CN(C)C(=O)CN(C)C(=O)CN(C)C(=O)CN(C)C(=O)CN(C)C(=O)CN(C)C(=O)CN(C)C(=O)CN(C)C(=O)CN(C)C(=O)CC[C@H](NC(=O)CC[C@H](NC(=O)CC[C@H](NC(=O)CCCCCCCCCCCCCCCCCCC(=O)O)C(=O)O)C(=O)O)C(=O)O)CC1)C(=O)N[C@@H](CCN)C(=O)N1CCC[C@H]1C(=O)N[C@@H](CCCNC(=N)N)C(=O)NCC(N)=O` [Compound 8, C20DA-gGlu3-Sar12-AEPipAc-Tyr-Phe-NMeLeu-Nle-Dbu-Pro-Arg-Gly-NH2], for which the solubility at 2 h in series [1] (pH 7.3) is 1900 µg/mL (≈ 701 µM). Also, in series [2], the Ki is more than 10000 nM. For the same compound, the EC50 in series [3] came to 3.1 nM.

In series [1] (pH 7.2), `CCCC[C@H](NC(=O)[C@H](CC(C)C)N(C)C(=O)[C@H](Cc1ccccc1)NC(=O)[C@H](Cc1ccc(O)cc1)NC(=O)CN1CCN(CCNC(=O)CN(C)C(=O)CN(C)C(=O)CN(C)C(=O)CN(C)C(=O)CN(C)C(=O)CN(C)C(=O)CN(C)C(=O)CN(C)C(=O)CN(C)C(=O)CN(C)C(=O)CN(C)C(=O)CN(C)C(=O)CC[C@H](NC(=O)CC[C@H](NC(=O)CC[C@H](NC(=O)CCCCCCCCCCCCCCCCC(=O)O)C(=O)O)C(=O)O)C(=O)O)CC1)C(=O)N[C@@H](CCCN)C(=O)N(C)[C@@H](C)C(=O)N[C@@H](CCCNC(=N)N)C(=O)NCC(N)=O` [Compound 20, C18DA-gGlu3-Sar12-AEPipAc-Tyr-Phe-NMeLeu-Nle-Orn-NMeAla-Arg-Gly-NH2] displayed a solubility at 2 h of 8400 µg/mL (≈ 3130 µM). Further, in series [2], the inhibition constant Ki is more than 10000 nM. Moreover, in series [3], the concentration for a half-maximal effect (EC50) worked out at 2.2 nM.

In series [1] (pH 7.3), `CCCC[C@H](NC(=O)[C@H](CC(C)C)N(C)C(=O)[C@H](Cc1ccccc1)NC(=O)[C@H](Cc1ccc(O)cc1)NC(=O)CN1CCN(CCNC(=O)CN(C)C(=O)CN(C)C(=O)CN(C)C(=O)CN(C)C(=O)CN(C)C(=O)CN(C)C(=O)CN(C)C(=O)CN(C)C(=O)CN(C)C(=O)CN(C)C(=O)CN(C)C(=O)CN(C)C(=O)CN(C)C(=O)CN(C)C(=O)CN(C)C(=O)CC[C@H](NC(=O)CC[C@H](NC(=O)CC[C@H](NC(=O)CCCCCCCCCCCCCCCCC(=O)O)C(=O)O)C(=O)O)C(=O)O)CC1)C(=O)N[C@@H](CCCN)C(=O)N1CCC[C@H]1C(=O)N[C@@H](CCCNC(=N)N)C(=O)NCC(N)=O` [Compound 21, C18DA-gGlu3-Sar15-AEPipAc-Tyr-Phe-NMeLeu-Nle-Orn-Pro-Arg-Gly-NH2] (HELM PEPTIDE1{[O=C(O)CCCCCCCCCCCCCCCCC(=O)[*:2]].[gGlu].[gGlu].[gGlu].[Sar].[Sar].[Sar].[Sar].[Sar].[Sar].[Sar].[Sar].[Sar].[Sar].[Sar].[Sar].[Sar].[Sar].[Sar].[O=C(CN1CCN(CCN[*:1])CC1)[*:2]].Y.F.[meL].[Nle].[Orn].P.R.G.[am]}$$$$V2.0) returned a solubility at 2 h of 7500 µg/mL (≈ 2580 µM). Also, the Ki in series [2] was more than 10000 nM. The EC50 in series [3] stood at 2.6 nM.

`CCCC[C@H](NC(=O)[C@H](CC(C)C)N(C)C(=O)[C@H](Cc1ccccc1)NC(=O)[C@H](Cc1ccc(O)cc1)NC(=O)CN1CCN(CCNC(=O)CN(C)C(=O)CN(C)C(=O)CN(C)C(=O)CN(C)C(=O)CN(C)C(=O)CN(C)C(=O)CN(C)C(=O)CN(C)C(=O)CN(C)C(=O)CN(C)C(=O)CN(C)C(=O)CN(C)C(=O)CN(C)C(=O)CN(C)C(=O)CN(C)C(=O)CC[C@H](NC(=O)CC[C@H](NC(=O)CC[C@H](NC(=O)CCCCCCCCCCCCCCCCC(=O)O)C(=O)O)C(=O)O)C(=O)O)CC1)C(=O)N[C@@H](CCCN)C(=O)N(C)[C@@H](C)C(=O)N[C@@H](CCCNC(=N)N)C(=O)NCC(N)=O` [Compound 22, C18DA-gGlu3-Sar15-AEPipAc-Tyr-Phe-NMeLeu-Nle-Orn-NMeAla-Arg-Gly-NH2] (HELM PEPTIDE1{[O=C(O)CCCCCCCCCCCCCCCCC(=O)[*:2]].[gGlu].[gGlu].[gGlu].[Sar].[Sar].[Sar].[Sar].[Sar].[Sar].[Sar].[Sar].[Sar].[Sar].[Sar].[Sar].[Sar].[Sar].[Sar].[O=C(CN1CCN(CCN[*:1])CC1)[*:2]].Y.F.[meL].[Nle].[Orn].[meA].R.G.[am]}$$$$V2.0): in series [1] (pH 7.3), the solubility at 2 h worked out at 8600 µg/mL (≈ 2970 µM). The same compound registered a Ki in series [2] of more than 10000 nM. Moreover, the EC50 in series [3] came out at 3.2 nM.
